Test results published in patent publication US20150175666A1, “PEPTIDES DERIVED FROM HIV GP41 FOR TREATING T-CELL MEDIATED PATHOLOGIES” (Yeda Research and Development Co. Ltd., priority 2012, published 2015).
Like-named read-outs stand apart in the source and are kept apart here. Square brackets hold non-standard residues; d marks the D form. Ends that are not written are not given here. rhodamine = not defined here

Legend:
[1] = test system: MOG35-55-specific murine line T cells (mMOG35-55 T-cells)
[2] = test system: TCRα on antigen-stimulated mMOG35-55-specific line T cells; experiment: Co-localization of Rho-labeled peptides with TCRα (confocal microscopy); format: cell-based, murine; conditions: activated T cells
Protocol: FITC excitation was set at 488 nm, with the laser set at 5% power and fluorescence was recorded from 502-525 nm. Rhodamine excitation was set at 559 nm, with the laser set at 1% power and the fluorescence data were collected above 580 nm. Each cell was imaged for TCRα staining (denoted in green) and for peptide staining (denoted in red). Using ImageJ, the images (n=20) were set to binary color and the two revised pictures were used to create a new picture of only what merged between them. The merged picture was divided by the revised red picture to give the percentage of co-localization.
Co-localization of the peptide with the TCR was assessed utilizing confocal microscopy (FIG. 5 D-E). Antigen-stimulated mMOG35-55-specific line T cells were probed with antibodies against TCRα followed by staining with secondary FITC-labeled antibodies (left column) and with the Rho-labeled peptide (SEQ ID NO: 3) (middle column). To evaluate the co-localization between the molecules, a merged image was produced (right column). […] As a control, AMP (SEQ ID NO: 13), a non-related antimicrobial peptide (Papo et al. J Biol Chem. 2005; 280(11):10378-10387), was labeled with rhodamine and its localization on T cells was detected.

TCR (Jurkat T cells) = experiment: Binding of Rho-labeled peptides to T-cell proteins (cross-linking SDS-PAGE, immunoprecipitation); parameters: species or system human; conditions: for fluorescent bands of T-cell proteins bound to Rho-peptide (SDS-PAGE): 1 μM Rho-labeled peptide, formaldehyde cross-linked Jurkat lysate
Protocol: Jurkat T cells (4×10^6) were incubated over night at 37° C. in the presence of 1 μM rhodamine-labeled peptide and lysed. The lysate was then incubated overnight with TCRα or GFP antibodies (2 μg) following 2 hours of incubation with protein G-plus Agarose beads (Santa Cruz Biotechnology Inc.). Next, the beads were washed with lysis buffer and boiled for 10 minutes; the protein supernatant was then run in a 12% SDS-PAGE. The presence of coimmunoprecipitated peptide was detected by the Typhoon 9400 variable mode imager.
Jurkat T cells (4×10^6) were incubated over night at 37° C. in the presence of 1 μM rhodamine-labeled pep6 (SEQ ID NO:3) and its mutant control peptide. Next, the cells were washed with PBS, crosslinked with 1% formaldehyde and after 10 minutes a 125 mM glycine solution was added to stop the reaction. Formaldehyde is a well known cross-linking agent used in the characterization of protein-protein interactions. The cells were lysed for 30 minutes on ice in a 300 μl lysis buffer followed by a sonication step. Insoluble material was removed by centrifugation at 3000×g for 4 min at 4° C. The proteins were resolved by 12% SDS-PAGE and proteins bound to the fluorescently labeled peptide were detected by the Typhoon 9400 variable mode imager (Amersham Biosciences). Excitation was set at 532 nm, and fluorescence emission was collected by a TAMRA filter (580 nm±30 nm) at 100 μm resolution and 600 volts. The protein loading amount was confirmed by Western blot to actin.
To investigate the interaction of the peptide with the TCR, 1 μM fluorescently labeled Rho-peptides were incubated with Jurkat T cells and then cross-linked with formaldehyde to maintain the interaction with their target proteins. The cross-linked T-cell lysate was resolved by SDS-PAGE and proteins bound to Rho-peptides were detected by the fluorescence of rhodamine (FIG. 5B). […] Western blot for actin was used to assure equal loading. […] Bound proteins were separated by SDS-PAGE and analyzed for the presence of the fluorescently-labeled peptides.

[3] = biological target: T1, core peptide of TMD from TCRα, CP (GLRILLLKV; SEQ ID NO: 14) (Mus musculus, UniProt P01849); experiment: Fluorescent measurements of NBD-labeled core peptide of TCRα TMD in LUV; format: binding; conditions: PC:Chol LUV, sequential doses
T1 construct: termed CP (GLRILLLKV); made in house
Protocol: The fluorescence experiments were performed using NBD-labeled core peptides of TCRα (NBD-CP). Fluorescence spectra were obtained at room temperature, with excitation set at 467 nm (10 nm slit) and the emission scan at 500-600 nm (10 nm slits). In a typical experiment, the NBD-CP was first added from a stock solution in DMSO (final concentration of 0.1 μM and a maximum of 0.25% (v/v) DMSO) to a dispersion of PC:Chol LUV (200 μM) in PBS. This was followed by the addition of unlabeled HIV peptides in several sequential doses ranging from 2.5×10-3 μM to 0.4 μM. Fluorescence spectra were obtained before and after the addition of unlabeled HIV peptides. The fluorescence values were corrected by subtracting the corresponding blank (buffer with the same vesicle concentration).
The TCR complex's TMD helices mediate receptor activation through the interactions between basic and acidic residues. […] To investigate this possibility, we utilized NBD fluorescence, which is sensitive to the membrane surroundings; its emission intensity is increased via membrane insertion (Rapaport et al. Embo J. 1995; 14(22):5524-5531). […] Their initial fluorescence emission spectra were first measured in the presence of LUVs alone and then in the presence of several sequential doses of unlabeled peptide and its mutants (SEQ ID NO: 3, 9 and 10) (FIG. 5H).

[4] = test system: encephalitogenic MOG35-55 reactive T cells (LNCs); experiment: Ex vivo recall response of lymph node cells from MOG35-55/CFA-immunized mice (proliferation, cytokine ELISA); format: in vivo, C57Bl/6J mice
Protocol: (§1) Mice were subcutaneously immunized with 150 μg MOG35-55 emulsified in complete Freund's adjuvant (CFA) containing 150 μg Mt H37Ra with or without 0.5 mg/kg HIV peptides. Ten days post immunization, draining lymph nodes were removed and cultured in triplicate in the presence or absence of antigen, as previously described. The cultures were incubated for 72 h at 37° C. [3H] Thymidine ([…]) was added for an additional 16 h of incubation and the cultures were then harvested and counted using a Beta Counter. Pro-inflammatory cytokine analysis of IFNγ, IL-12, and TNFα were determined by ELISA, 24 h after cell activation, according to standard protocols from PharMingen (San Diego, Calif.), as described previously
as §1, with “described. […]” for “described. The cultures were incubated for 72 h at 37° C. [3H]”, “described previously. […]” for “described previously”

[5] = test system: T-cell lymphocytes derived from mice spleen cells; experiment: Binding of fluorescently labeled peptides to spleen-derived lymphocytes; format: cell-based
Description: Further, the T-cell binding affinity of peptides having the amino acid sequence of […] (SEQ ID NO:2 and 11; all L- and all D-amino acids, respectively) was examined. […] Spleen derived B cell lymphocytes were used as a control.

[6] = MOG35-55 and APCs, peptides 2.5-20 μM

Chain of TCR (Jurkat T cells) (P01848 whole entry): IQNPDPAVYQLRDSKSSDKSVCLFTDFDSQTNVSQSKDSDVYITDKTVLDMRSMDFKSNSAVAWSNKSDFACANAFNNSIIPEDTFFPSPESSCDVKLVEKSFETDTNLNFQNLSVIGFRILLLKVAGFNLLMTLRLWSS
Chain of TCR (Jurkat T cells) (P01850 whole entry, further chain): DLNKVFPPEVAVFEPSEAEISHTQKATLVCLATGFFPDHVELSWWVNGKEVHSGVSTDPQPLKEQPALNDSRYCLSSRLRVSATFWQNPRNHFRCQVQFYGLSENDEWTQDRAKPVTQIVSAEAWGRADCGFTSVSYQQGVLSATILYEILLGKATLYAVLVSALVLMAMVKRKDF
Chain of TCRα on antigen-stimulated mMOG35-55-specific line T cells (P01849 whole entry): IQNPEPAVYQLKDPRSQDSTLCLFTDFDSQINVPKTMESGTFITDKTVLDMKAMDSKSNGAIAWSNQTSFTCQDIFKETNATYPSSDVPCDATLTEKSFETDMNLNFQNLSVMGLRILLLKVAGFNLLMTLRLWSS

CC[C@H](C)[C@H](NC(=O)[C@H](CCC(N)=O)NC(=O)[C@H](CCC(=O)O)NC(=O)[C@H](CC(C)C)NC(=O)[C@H](CO)NC(=O)[C@H](CCCCN)NC(=O)[C@H](CC(N)=O)NC(=O)[C@H](N)CO)C(=O)N[C@@H](Cc1c[nH]c2ccccc12)C(=O)N[C@@H](CC(N)=O)C(=O)N[C@@H](Cc1c[nH]cn1)C(=O)N[C@H](C(=O)N[C@H](C(=O)N[C@@H](Cc1c[nH]c2ccccc12)C(=O)N[C@@H](CCSC)C(=O)N[C@@H](CCC(=O)O)C(=O)N[C@@H](Cc1c[nH]c2ccccc12)C(=O)N[C@H](CC(=O)O)C(N)=O)[C@@H](C)O)[C@@H](C)O [D-PEP 6, SNKSLEQIWNHTTWMEWD]
IC50 [1]: 3 µM

EQIWNHTTWMEWDREINN-NH2 [SHIFTED PEP 6, EQIWNHTTWMEWDREINN]
IC50 [1]: 10 µM
inhibition of T-cell proliferation (potency in words) [1, 6]: still exhibited potent activity

LQARILAVERYLKDQQL [ISU, LQARILAVERYLKDQQL, reference compound]
IC50 [1]: 15 µM

Rho-AMP: AMP (SEQ ID NO: 13) labeled with rhodamine (KLKLLKLLKLLKLLK; also: rhodamine label, site not given here)
co-localization with TCRα molecules [2]: found throughout the cell membrane

Rho-pep 6: rhodamine N-terminally labeled pep 6 (SEQ ID NO: 3) (rhodamine-SNKSLEQIWNHTTWMEWD-NH2; reading uncertain)
fluorescent bands of T-cell proteins bound to Rho-peptide (SDS-PAGE) (TCR (Jurkat T cells)): only one major fluorescent band
coimmunoprecipitation with TCRα antibodies (TCR (Jurkat T cells); Jurkat T cells, GFP antibody as control): coprecipitated with the TCR

SNKSLEQIGNHTTGMEGD [SEQ ID NO: 9]
fluorescent bands of T-cell proteins bound to Rho-peptide (SDS-PAGE) (TCR (Jurkat T cells)): neither observed
fluorescence emission maxima of NBD-CP upon addition of unlabeled peptide [3]: only a slight increase

SNKSLEQIWNHTTWMGWG [SEQ ID NO: 10]
fluorescence emission maxima of NBD-CP upon addition of unlabeled peptide [3]: only a slight increase

TTAVPWNASWSNKSLEQI-NH2 [PEP 1, TTAVPWNASWSNKSLEQI]
IC50 [1]: > 40 µM
inhibition of T-cell proliferation (potency in words) [1, 6]: not active

WNASWSNKSLEQIWNHT-NH2 [PEP 8, WNASWSNKSLEQIWNHT]
IC50 [1]: 15 µM

WNHTTWMEWD ([dW][dN][dH][dT][dT][dW][dM][dE][dW][dD]) [SEQ ID NO: 11]
ex vivo recall proliferative response of LNCs to MOG35-55 ([4]; 0.5 mg/kg peptide, day 10 post immunization): down-regulation
binding to T-cell lymphocytes versus B cell lymphocytes [5]: preferably bind T-cell lymphocytes

WNHTTWMEWD-NH2 [SHORT PEP 6, WNHTTWMEWD]
IC50 [1]: 5 µM
inhibition of T-cell proliferation (potency in words) [1]: still exhibited potent activity
ex vivo recall proliferative response of LNCs to MOG35-55 ([4]; mouse, in vivo): down-regulation
binding to T-cell lymphocytes versus B cell lymphocytes [5]: preferably bind T-cell lymphocytes
